Calls of active or inactive are those of the source. How the calls were made is not given here. Some results are limits rather than exact numbers.

In this assay the target is E3 ubiquitin-protein ligase SIAH1 (Homo sapiens) (UniProt Q8IUQ4). Description: Siah-1 binding antagonists, dose response, biochemical, TR-FRET (AID 2141). The following applies: TR-FRET biochemical assay. (Time-resolved FRET reads energy transfer from a long-lived donor to a nearby acceptor.)
As to `O=C(NCc1ccc(Cl)cc1)c1cc(-c2cccs2)on1`, the IC50 (in general, the concentration that gives 50% inhibition) is 6.3 µM.

With `Cc1cc2cc(CNC(=O)c3ccc(S(=O)(=O)N4CCCCC4)cc3)ccc2n1C`, the IC50 was 6.45 µM.

With `CCNc1ccc(C(=O)O)cc1N`, the IC50 was 3.96 µM.

For the compound `O=C(Nc1ccc(S(=O)(=O)N2CCOCC2)cc1)c1ccc(=O)[nH]c1`, the concentration for half-maximal inhibition (IC50) is 1.89 µM.

Consider `CCOc1ccccc1CNc1ccc(O)cc1`, for which the IC50 is 5.11 µM.

With `COC(=O)c1c(C(=O)OC)c2cccc3cc(-c4ccccc4)c4ccc1c4n32`, the IC50 is 14.6 µM.

In the case of `CCCCNc1nnc(Cc2ccc(Cl)cc2)c(=O)[nH]1`, the IC50 entry was “inactive”.

Turning to `Nc1ccc(S(=O)(=O)Nc2ccc(S(N)(=O)=O)cc2)cc1`, the IC50 was > 200 µM (inactive).

`O=S(=O)(Nc1c(S(=O)(=O)c2ccccc2)c2nc3ccccc3nc2n1C1CCCCC1)c1ccccc1`: the IC50 was 2.09 µM.

For `O=C(O)CCN1C(=O)/C(=C/c2cn(-c3ccccc3)nc2-c2cccs2)SC1=S`, the IC50 result is “inactive”.

Turning to `COC(=O)C1C=C2c3cccc4[nH]cc(c34)CC2N(C)C1` (stereo not given), the 50% inhibitory concentration (IC50) was 1.85 µM.

As to `CCCCNc1c2c3c(cccc3n(C)c1=O)C(=O)c1ccccc1-2`, the IC50 was > 200 µM (inactive).

As to `COC(=O)c1cc(NC(=O)c2ccccc2)c(=O)oc1/C=C/Nc1ccc(Oc2ccccc2)cc1`, the IC50 was > 200 µM (inactive).

With `COCCCn1c(N)c(C(=O)NCc2ccco2)c2nc3ccccc3nc21`, the half-maximal inhibitory concentration (IC50) is 2.31 µM.

For the compound `CCCCn1c(NC(=O)c2ccc(Br)o2)c(C(=O)OCC)c2nc3ccccc3nc21`, the IC50 was 2.04 µM.

For the compound `Cc1ccc(C(=O)COc2ccccc2C(=O)Nc2ccccc2)cc1`, the IC50 was > 200 µM (inactive).

With `O=C(CC1Nc2cccc3cccc(c23)NC1=O)Nc1ccccc1` (stereo not given), the IC50 is 6.36 µM.

`CCCCN(Cc1cc2cc(OC)ccc2[nH]c1=O)S(=O)(=O)c1ccc(C)cc1`: the concentration for half-maximal inhibition (IC50) was 17.2 µM.

As to `O=C(O)CCCNc1cc(N2CCN(C(=O)c3ccco3)CC2)c2noc3c2c1C(=O)c1ccccc1-3`, the half-inhibitory concentration (IC50) is 5.41 µM.

As to `COc1ccc(CCNC(=O)c2ccc(S(=O)(=O)N(C)c3ccccc3)cc2)cc1OC`, the IC50 is > 200 µM (inactive).

As to `O=C(Nc1cc([N+](=O)[O-])ccc1N1CCOCC1)c1cccs1`, the IC50 is > 200 µM (inactive).

On to `O=C1CCCC(O)=C1N=Nc1ccc(C(=O)O)cc1`, for which the IC50 is less than 1.56 µM.

Consider `Oc1c(Br)cc(Br)cc1CNc1ccc(F)cc1`, for which the IC50 result is “inactive”.

`CC1CCN(S(=O)(=O)c2ccc3c(c2)c(=O)c(C(=O)NCc2ccccc2Cl)cn3C)CC1`: the IC50 is > 200 µM (inactive).

With `CCc1nnc(NS(=O)(=O)c2ccc(NC(=S)NC(=O)/C=C/c3ccc(C(C)C)cc3)cc2)s1`, the concentration for half-maximal inhibition (IC50) was 8.87 µM.

Take `O=C1C=C(NCc2ccccc2)c2ccccc2C1=O`: the IC50 was 15.6 µM.

With `N#Cc1c(NC(=O)c2ccc(Br)o2)n(-c2ccccc2)c2nc3ccccc3nc12`, the IC50 is 3.73 µM.

Turning to `O=c1[nH]c2ccc(S(=O)(=O)N3CCCCC3)cc2s1`, the IC50 is > 200 µM (inactive).

As to `O=C(NCc1c(F)cccc1F)c1cc(COc2c(F)cccc2F)on1`, the IC50 was > 200 µM (inactive).

As to `Cc1ccc(-n2cccn2)c([C@@H]2C[C@H]3CN(C)C(=O)[C@]34CCCN24)c1`, the IC50 is > 200 µM (inactive).

Take `COc1ccc(CNC(=S)Nc2cc(OC)ccc2OC)cc1`: the IC50 is > 200 µM (inactive).

In the case of `Cc1ccccc1NC(=O)CN1C(=O)N/C(=C\c2ccccc2OCc2ccc(C(=O)O)cc2)C1=O`, the IC50 was 5.04 µM.

Take `NS(=O)(=O)c1ccc(NC(=O)c2cccc(N3C(=O)c4ccccc4C3=O)c2)cc1`: the IC50 was 10.6 µM.

On to `Cc1cc(C)nc(N=Nc2c(O)n(Cc3ccc(Cl)cc3)c3ccccc23)n1`, for which the IC50 was > 200 µM (inactive).

`COCCCNc1c2c3c(cccc3[nH]c1=O)C(=O)c1ccccc1-2`: the IC50 was > 200 µM (inactive).

Take `N#CC1C=Cc2ccccc2N1C(=O)c1ccccc1` (stereo not given): the IC50 is > 200 µM (inactive).

Consider `CN1/C(=C\C=C\C2=[N+](C)c3ccc4ccccc4c3C2(C)C)C(C)(C)c2ccccc21`, for which the IC50 is > 200 µM (inactive).

Regarding `CCCCn1c(NC(=O)c2ccco2)c(S(=O)(=O)c2ccc(C)cc2)c2nc3ccccc3nc21`, the IC50 is > 200 µM (inactive).

`CCN(CC)c1ccc(C=N/C(C#N)=C(\N)C#N)cc1`: the IC50 was > 200 µM (inactive).

`C[N+]1(CCNC(=O)/C=N/O)CCCCC1`: the IC50 entry is “inactive”.

Regarding `COc1ccc(-c2cnnn2-c2ccc(N)cc2)cc1OC`, the IC50 is > 200 µM (inactive).

For the compound `Oc1ccc(N=Cc2sc3ccccc3c2Cl)cc1`, the concentration for half-maximal inhibition (IC50) was 14.9 µM.

On to `Cc1ccccc1-c1nc2c3ccccc3nc(=S)n2[nH]1`, for which the IC50 is > 200 µM (inactive).

In the case of `COc1cc(CNc2ccc(O)cc2)cc(Br)c1OCc1ccccc1F`, the concentration for half-maximal inhibition (IC50) is 4.66 µM.

For the compound `CC1=CC(C)(C)N2C(=O)C(=Nc3ccc(O)cc3)c3cccc1c32`, the IC50 is 5.61 µM.

Regarding `CCCCn1c(NS(=O)(=O)c2ccccc2)c(C(=O)OCC)c2nc3ccccc3nc21`, the concentration for half-maximal inhibition (IC50) was 2.16 µM.

As to `O=C(O)c1cc(O)c2c(c1)C(=O)c1cccc(O)c1C2=O`, the IC50 was > 200 µM (inactive).

For `CS(=O)(=O)N1CCN(c2ccc([N+](=O)[O-])c(SCc3ccco3)c2)CC1`, the IC50 is > 200 µM (inactive).

For `Cc1ccn2c(C(=O)CSc3ccc(Cl)cc3Cl)c(C)nc2c1`, the IC50 is > 200 µM (inactive).

Regarding `CSc1ccccc1C(=O)NC(C)c1ccc(-n2ccnc2)cc1` (stereo not given), the IC50 entry was “inactive”.

In the case of `COc1cccc2cc(C(=O)N3CCc4ccccc43)c(=O)oc12`, the IC50 is > 200 µM (inactive).

With `COc1ccc(CCNC(=O)CCC(=O)N2CCOc3ccc(C)cc32)cc1OC`, the IC50 is > 200 µM (inactive).

As to `Nc1c(C(=O)NCc2ccco2)c2nc3ccccc3nc2n1Cc1ccccc1`, the IC50 was less than 1.56 µM.

Turning to `Nc1c(C(=O)NCc2ccco2)c2nc3ccccc3nc2n1CCc1ccccc1`, the IC50 was 1.77 µM.

`CC12CCC(C(=O)NCc3ccc(Cl)cc3)(OC1=O)C2(C)C` (stereo not given): the IC50 was > 200 µM (inactive).

On to `Oc1ccc(N=Cc2ccc(OCc3ccccc3)cc2)cc1`, for which the 50% inhibitory concentration (IC50) was 3.74 µM.

In the case of `COc1ccc(N=C2NC(=O)S/C2=C\c2ccc(N(C)C)cc2)cc1`, the IC50 was > 200 µM (inactive).

Take `CC(NC(=O)Nc1ccc(O)cc1)(C(F)(F)F)C(F)(F)F`: the IC50 result was “inactive”.

`CCOC(=O)c1c(C)[nH]c2c1-c1ccccc1C(=O)C2=O`: the IC50 was > 200 µM (inactive).

Consider `CC(C)(C)c1cc(-c2csc(Nc3ccccc3)[n+]2Cc2ccc(C(=O)O)cc2)cc(C(C)(C)C)c1O`, for which the IC50 is 6.69 µM.

Turning to `Cc1cc(C)n(-c2ccc(Cl)c(C(=O)Nc3cc(C(F)(F)F)ccc3Cl)n2)n1`, the IC50 was > 200 µM (inactive).

For `Cc1c(Cc2ccccc2)c(=O)oc2c(C)c(OCC(=O)N[C@@H](Cc3ccccc3)C(=O)O)ccc12`, the IC50 was 4.38 µM.

As to `N#C/C(=C\c1c(F)cccc1Cl)C(=O)NC1CC1`, the IC50 was > 200 µM (inactive).

Take `O=C(Nc1ccc(Cl)cc1)OCc1cn(-c2ccccc2)nn1`: the IC50 is > 200 µM (inactive).

With `CCC(C)N1C(=O)/C(=C/c2c(NCCCOC(C)C)nc3c(C)cccn3c2=O)SC1=S` (stereo not given), the IC50 is > 200 µM (inactive).
